# Measurements published in patent publication US4731486A, “Hydroformylation using low volatile phosphine ligands” (Union Carbide Corporation, priority 1986, dated 1988).
# Counter-ions that a name gives are not always drawn.
# Columns and labels:
# [1] = Batch hydroformylation of propylene in stirred autoclave (Examples 1, 2, 11, 14, 19); conditions: 100° C., 90 psia 1:1:1 H2:CO:C3H6
# Description: A series of various rhodium complex catalyst precursor solutions consisting essentially of the solubilized reaction product of rhodium dicarbonyl acetylacetonate and various monosulfonated triphenylphosphine metal salt ligands were prepared and employed to hydroformylate propylene into C4 aldehydes in the following manner.
# Each rhodium catalytic precursor solution so prepared was then employed to hydroformylate propylene in a magnetically stirred, 100 mL capacity, stainless steel autoclave which was attached to a gas manifold for introducing gases to the desired partial pressures. The autoclave was also equipped with a pressure calibrator for determining reaction pressure to ±0.01 psia. and a platinum resistance thermometer for determining reactor solution temperatures to ±0.10° C. The reactor was heated externally by two 300 watt heating bands. The reactor solution temperature was controlled by a platinum resistance sensor connected to an external proportional temperature controller for controlling the temperature of the external band heaters.
# In each non-aqueous hydroformylation reaction, about 15 milliliters (about 14 grams) of the rhodium catalytic precursor solution so prepared was charged to the autoclave reactor under nitrogen and heated to the reaction temperature employed (as given in Table 1 below). The reactor was then vented down to 5 psig. and a premixed gas mixture of 1:1:1 carbon monoxide:hydrogen:propylene was introduced into the reactor via the gas manifold (partial pressures given in Table 1) and the propylene so hydroformylated.
# A comparison of the catalytic activity of aqueous and non-aqueous solutions of monosulfonated triphenylphosphine sodium salt ligand promoted catalysts in hydroformylating various molecular weight alphe-olefins was determined as follows.
# Both the aqueous and non-aqueous hydroformylation reactions were conducted under identical conditions with regard to temperature, rhodium and ligand concentration, hydrogen and carbon monoxide partial pressure and olefin concentration.
# [2] = Continuous single pass hydroformylation of butene-1 (Examples 3, 4, 5, 7, 12)
# Description: Continuous hydroformylation of butene-1 a monosulfonated triphenylphosphine metal salt ligand was conducted in the following manner.
# The non-aqueous hydroformylation was conducted in a glass reactor operating in a continuous single pass butene-1 hydroformylation mode. The reactor consisted of a three-ounce pressure bottle submersed in an oil bath with a lass front for viewing. About 20-mL of a freshly prepared rhodium catalytic precursor solution was charged to the reactor with a syringe, after purging the system with nitrogen. […] After closing the reactor, the system was again purged with nitrogen and the oil bath was heated to furnish the desired hydroformylation reaction temperature. The hydroformylation reaction was conducted at a total gas pressure of about 160 psig., the partial pressures of hydrogen, carbon monoxide, and butene-1 being given in Table 3 below, the remainder being nitrogen and aldehyde product.
# The flows of the feed gases (carbon monoxide, hydrogen, butene-1 and nitrogen) were controlled individually with mass flow meters and the feed gases dispersed into the precursor solution via microporous stainless steel spargers. The unreacted portion of the feed gases was stripped out with the product C5 aldehydes and the outlet gas analyzed over about 12 days of continuous operation.
# [3] = Solubility of metal salt ligands in nonanal with added solubilizing agent; type: physicochemical; conditions: 25° C., nonanal with 1:4 CARBOWAX TPEG-900/TERGITOL NP-9
# [4] = 200 ppm Rh, about 120 mole equivalents ligand, Texanol/Carbowax PEG-600: Li 100:0, K 9:1, Rb 8:1, Cs 7:1, Ca 20:1, Ba 7:1, Sr 18:1
# [5] = Texanol, day 0.8, 80 °C, CO 40, H2 39, C4H8 3 psia
# [6] = Texanol, day 1.9, 80 °C, CO 38, H2 41, C4H8 4 psia
# [7] = Texanol, day 2.8, 80 °C, CO 39, H2 41, C4H8 3 psia
# [8] = Texanol, day 3.9, 80 °C, CO 38, H2 42, C4H8 4 psia
# [9] = Texanol, day 5.0, 80 °C, CO 38, H2 42, C4H8 4 psia
# [10] = Texanol, day 5.8, 80 °C, CO 38, H2 42, C4H8 5 psia
# [11] = Texanol, day 6.8, 80 °C, CO 38, H2 43, C4H8 4 psia
# [12] = Texanol, day 7.8, 80 °C, CO 38, H2 44, C4H8 5 psia
# [13] = Texanol, day 9.0, 80 °C, CO 39, H2 43, C4H8 5 psia
# [14] = Texanol, day 10.0, 80 °C, CO 42, H2 38, C4H8 6 psia
# [15] = Texanol, day 10.9, 80 °C, CO 41, H2 39, C4H8 6 psia
# [16] = Texanol, day 11.0 (so in the source), 80 °C, CO 41, H2 39, C4H8 6 psia
# [17] = Texanol, day 12.9, 80 °C, CO 41, H2 39, C4H8 5 psia
# [18] = Texanol, 240 ppm Rhodium, about 14 mole equivalents ligand (0.9 wt. %)
# [19] = Texanol/PEG-600 20:1, day 0.9, 101 °C, CO 20, H2 59, C4H8 20 psia
# [20] = Texanol/PEG-600 20:1, day 1.7, 101 °C, CO 19, H2 55, C4H8 18 psia
# [21] = Texanol/PEG-600 20:1, day 5.0, 101 °C, CO 16, H2 47, C4H8 36 psia
# [22] = Texanol/PEG-600 20:1, day 5.9, 101 °C, CO 17, H2 51, C4H8 29 psia
# [23] = Texanol/PEG-600 20:1, day 7.0, 101 °C, CO 13, H2 43, C4H8 50 psia
# [24] = Texanol/PEG-600 20:1, day 8.0, 101 °C, CO 17, H2 41, C4H8 36 psia
# [25] = Texanol/PEG-600 20:1, day 9.0, […], CO 17, H2 36, C4H8 52 psia
# [26] = Texanol/PEG-600 20:1, day 10.0, […], CO 18, H2 30, C4H8 56 psia
# [27] = Texanol/PEG-600 20:1, day 11.8, […], CO 17, H2 29, C4H8 63 psia
# [28] = Texanol/PEG-600 20:1, day 11.9 (so in the source), […], CO 17, H2 29, C4H8 59 psia
# [29] = Texanol/PEG-600 20:1, day 12.6, 103 °C, CO 18, H2 29, C4H8 61 psia
compound,measurement,setting,value
O=S(=O)(O)c1cccc(P(c2ccccc2)c2ccccc2)c1 [K^+],Linear/Branched Aldehyde Mole Ratio,"[1]; 200 ppm Rh, about 120 mole equivalents ligand, Texanol/Carbowax PEG-600: Li 100:0, K 9:1, Rb 8:1, Ca 20:1, Ba 7:1",5.1
same,Reaction Rate (C4 aldehydes),[1]; [4],0.87 Gmoles/L/Hr
"O=S(=O)(O)c1cccc(P(C2CCCCC2)C2CCCCC2)c1 [DCHPPMS-Na, monosulfonated dicyclohexylphenylphosphine sodium salt]",Linear/Branched Aldehyde Mole Ratio,[2]; [5],1.86
same,"Rate (C5 aldehydes), daily average",[2]; [5],0.86 gmoles/L/Hr
same,Linear/Branched Aldehyde Mole Ratio,[2]; [6],1.88
same,"Rate (C5 aldehydes), daily average",[2]; [6],1.02 gmoles/L/Hr
same,Linear/Branched Aldehyde Mole Ratio,[2]; [7],1.99
same,"Rate (C5 aldehydes), daily average",[2]; [7],0.87 gmoles/L/Hr
same,Linear/Branched Aldehyde Mole Ratio,[2]; [8],1.84
same,"Rate (C5 aldehydes), daily average",[2]; [8],0.85 gmoles/L/Hr
same,Linear/Branched Aldehyde Mole Ratio,[2]; [9],1.83
same,"Rate (C5 aldehydes), daily average",[2]; [9],0.88 gmoles/L/Hr
same,Linear/Branched Aldehyde Mole Ratio,[2]; [10],1.79
same,"Rate (C5 aldehydes), daily average",[2]; [10],0.86 gmoles/L/Hr
same,Linear/Branched Aldehyde Mole Ratio,[2]; [11],1.95
same,"Rate (C5 aldehydes), daily average",[2]; [11],0.80 gmoles/L/Hr
same,Linear/Branched Aldehyde Mole Ratio,[2]; [12],1.78
same,"Rate (C5 aldehydes), daily average",[2]; [12],0.86 gmoles/L/Hr
same,Linear/Branched Aldehyde Mole Ratio,[2]; [13],1.75
same,"Rate (C5 aldehydes), daily average",[2]; [13],0.72 gmoles/L/Hr
same,Linear/Branched Aldehyde Mole Ratio,[2]; [14],1.79
same,"Rate (C5 aldehydes), daily average",[2]; [14],0.94 gmoles/L/Hr
same,Linear/Branched Aldehyde Mole Ratio,[2]; [15],1.89
same,"Rate (C5 aldehydes), daily average",[2]; [15],0.95 gmoles/L/Hr
same,Linear/Branched Aldehyde Mole Ratio,[2]; [16],1.92
same,"Rate (C5 aldehydes), daily average",[2]; [16],0.99 gmoles/L/Hr
same,Linear/Branched Aldehyde Mole Ratio,[2]; [17],1.77
same,"Rate (C5 aldehydes), daily average",[2]; [17],0.95 gmoles/L/Hr
same,Linear/Branched Aldehyde Mole Ratio,[1]; [18],1.2
same,Reaction Rate (C4 aldehydes),[1]; [18],0.78 G moles/L/hr
"O=S(=O)(O)c1cccc(P(c2ccccc2)c2ccccc2)c1 [Ca^++, monosulfonated triphenylphosphine calcium salt]",Metal Salt Solubility,[3]; calcium salt,18 Wt. %
same,Linear/Branched Aldehyde Mole Ratio,[2]; [19],12.84
same,"Rate (C5 aldehydes), daily average",[2]; [19],1.27 gmoles/L/Hr
same,Linear/Branched Aldehyde Mole Ratio,[2]; [20],14.44
same,"Rate (C5 aldehydes), daily average",[2]; [20],1.38 gmoles/L/Hr
same,Linear/Branched Aldehyde Mole Ratio,[2]; [21],13.06
same,"Rate (C5 aldehydes), daily average",[2]; [21],1.62 gmoles/L/Hr
same,Linear/Branched Aldehyde Mole Ratio,[2]; [22],17.67
same,"Rate (C5 aldehydes), daily average",[2]; [22],1.64 gmoles/L/Hr
same,Linear/Branched Aldehyde Mole Ratio,[2]; [23],20.95
same,"Rate (C5 aldehydes), daily average",[2]; [23],1.85 gmoles/L/Hr
same,Linear/Branched Aldehyde Mole Ratio,[2]; [24],18.76
same,"Rate (C5 aldehydes), daily average",[2]; [24],2.09 gmoles/L/Hr
same,Linear/Branched Aldehyde Mole Ratio,[2]; [25],18.38
same,"Rate (C5 aldehydes), daily average",[2]; [25],2.19 gmoles/L/Hr
same,Linear/Branched Aldehyde Mole Ratio,[2]; [26],20.52
same,"Rate (C5 aldehydes), daily average",[2]; [26],1.40 gmoles/L/Hr
same,Linear/Branched Aldehyde Mole Ratio,[2]; [27],18.90
same,"Rate (C5 aldehydes), daily average",[2]; [27],1.51 gmoles/L/Hr
same,Linear/Branched Aldehyde Mole Ratio,[2]; [28],21.86
same,"Rate (C5 aldehydes), daily average",[2]; [28],1.62 gmoles/L/Hr
same,Linear/Branched Aldehyde Mole Ratio,[2]; [29],28.03
same,"Rate (C5 aldehydes), daily average",[2]; [29],1.83 gmoles/L/Hr
same,Linear/Branched Aldehyde Mole Ratio,"[1]; 200 ppm Rh, about 120 mole equivalents ligand, Texanol/Carbowax PEG-600: Li 100:0, K 9:1, Rb 8:1, Ca 20:1, Ba 7:1, calcium salt",4.7
same,Reaction Rate (C4 aldehydes),"[1]; 200 ppm Rh, about 120 mole equivalents ligand, Texanol/Carbowax PEG-600: Li 100:0, K 9:1, Rb 8:1, Cs 7:1, Ca 20:1, Ba 7:1, Sr 18:1, calcium salt",0.51 Gmoles/L/Hr
"O=S(=O)(O)c1cccc(P(c2ccccc2)C2CCCCC2)c1 (stereo not drawn) [CHDPPMS-Na, monosulfonated cyclohexyldiphenylphosphine sodium salt]",Linear/Branched Aldehyde Mole Ratio,[1]; [18],1.6
same,Reaction Rate (C4 aldehydes),[1]; [18],0.32 G moles/L/hr
O=S(=O)(O)c1cccc(P(c2ccccc2)c2ccccc2)c1 [Sr^++],Reaction Rate (C4 aldehydes),[1]; [4],No Rate
O=S(=O)(O)c1cccc(P(c2ccccc2)c2ccccc2)c1 [Cs^+],Metal Salt Solubility,[3],> 10 Wt. %
same,Reaction Rate (C4 aldehydes),[1]; [4],Declining Rate
